Assay results from US20060135612A1, “Method of ameliorating or abrogating the effects of a neurodegenerative disorder, such as amyotrophic lateral sclerosis (ALS), by using a HDAC inhibiting agent” (U.S. Department of Veterans Affairs, priority 2004, published 2006).
Read-outs that look alike come from different tables or passages of the source.

Assays:
[1] = tested on: ALS mice; details: References 10 and 11; cited from earlier work
[2] = tested on: humans with ALS; details: cited from earlier work
[3] = tested on: acetylated NF-κB p50; details: 1 mM
Protocol: (§1) Freshly isolated spinal cords from wild type and G93A mice were minced and incubated with neurobasal medium for 12 hr. […] After incubation, the tissues were harvested and equally divided for Western blot analysis and RT-PCR.
Detection of Acetylated NF-κB p50: For detection of the levels of acetylated NF-κB p50, 200 μg of nuclear extracts were diluted to a total volume of 500 microliter in lysis buffer (100 mM Tris buffer, pH7.4, containing 1% Triton X-100, 150 mM NaCl, 1 mM sodium orthovanadate, 5 mM sodium fluoride, 3 mM PMSF, 3 mM DTT, 0.5 mg/m leupeptin, and 10 mg/ml aprotinin) and incubated with 7 μl of goat anti-p50 antibody (Santa Cruz, Santa Cruz, Calif.) by shaking overnight at 4° C. Thirty-two μl of protein A-sepharose (50% v/v slurry) was added to lysates and left for 1 hr at 4° C. Beads were collected by centrifugation and washed twice with lysis buffer, once in PBS and finally resuspended with 40 μl of 2×SDS loading buffer. Samples were boiled and a 20 μl aliquot was separated in a 10% SDS-PAGE. After transferring the proteins to a nitrocellulose membrane acetylated p50 proteins were detected in Western blot analysis using an acetyl lysine-specific antibody (AbCam, Cambridge, Mass. at 1:1000).

[4] = tested on: plκB; details: N2a cells, 1 mM for three hours
Protocol: (§2) Immunofluorescence Staining and Microscopy: Indirect labeling methods were used to determine plκB and NF-κB p50 in N2aCells. […] The cells were washed with warm PBS and fixed at room temperature for 15 min with 4% paraformaldehyde (PFA). After washing with PBS, fixed cells were incubated with blocking solution containing 0.3% Triton X-100, 5% bovine serum albumin, and 3% goat serum for 1 hr, followed by incubation with primary antibodies overnight at 4° C. After three washes with PBS, the cells were incubated for 1 hr with FITC-conjugated (1:200 dilution) and Cy3-conjugated secondary antibody (1:200 dilution; Vector Laboratories, Burlingame, Calif.). The slides were washed three times with PBS and mounted with fluorochrome mounting solution. Images were analyzed using a fluorescence microscope. Control experiments were performed in the absence of primary antibody.

[5] = tested on: NF-κB p50; details: N2a cells, 1 mM for three hours
Protocol: as §2

[6] = tested on: G93A mice; details: at 17 weeks, vs untreated G93A mice
Protocol: Clinical Assessment: Both motor performance and body weight were measured throughout the study. Training sessions were given on days 21 and 22 to acclimate the mice to the rotarod apparatus (Columbus Instruments, Columbus, Ohio). Motor performance (constant rotation at 16 rpm) was assessed weekly from 23-100 days of age and twice weekly from 101 days of age. Three 60 sec trials were given during each session and averaged. Body weights were recorded twice weekly at the same time of day. Gait analysis was performed measuring stride length (Reference 49).

[7] = tested on: plκB; details: spinal cord tissue cultures, 1 mM, time-dependent
Protocol: as §1
(§3) Western Blotting: Tissue lysates and subcellular fractions were prepared using an ice-cold cell extraction buffer containing 50 mM Tris-HCl, pH 7.4, 150 mM NaCl, 2 mM EDTA, 1% Triton X-100, 1 mM phenylmethylsulfonyl fluoride (PMSF), 10 mg/ml leupeptin, 1 μM pepstatin, 1 mM N-ethylmleimide (NEM), 2 mM Na3VO4, 20 mM sodium pyrophosphate, and 50 mM NaF). Lysates were centrifuged at 15,000 rpm at 4° C. for 30 min. Then the protein concentration was quantified and samples were boiled for 10 min with Laemmli buffer (15 is 100 mM Tris-HCL, pH 6.8, 4% SDS, 200 mM dithiothreitol, 20% glycerol, 2% SDS, 0.2% bromophenol blue, 10 μg/ml aprotinin, 10 μg/ml leupeptin) at 100° C. In general, 30 μg of proteins were electrophoresed on 10% SDS-polyacrylamide gel and transferred to nitrocellulose membrane. Membranes were blocked in 5% skim milk in TBST (Tris, pH 7.4; 150 mM NaCl; 0.05% Tween 20) for 30 min at room temperature. Blots were probed with primary antibodies overnight at 4 ° C. […] HRP-conjugated secondary IgG anti-Rabbit IgG and anti-mouse IgG (Bio-Rad Laboratories, Inc., Hercules, Calif.) were used at 1:5000 and 1:3000, respectively. […]

[8] = tested on: bcl-2; details: spinal cord tissue cultures, 1 mM, time-dependent
Protocol: as §1, §3

[9] = tested on: histone 3 and histone 4 acetylation; details: treated WT and G93A mice
[10] = tested on: G93A mice; assay: Motor performance on rotarod; type: in vivo; details: most efficacious doses, after 13 wks through endstage disease
[11] = tested on: G93A mice; details: 120 days; for reactive astrogliosis (GFAP immunostaining): G93A mice spinal cord sections; for gross spinal cord atrophy: G93A mice
[12] = tested on: activated caspase 9; details: G93A mice, 120 days, vs untreated
Protocol: (§4) Western Blotting: Tissue lysates and subcellular fractions were prepared using an ice-cold cell extraction buffer containing 50 mM Tris-HCl, pH 7.4, 150 mM NaCl, 2 mM EDTA, 1% Triton X-100, 1 mM phenylmethylsulfonyl fluoride (PMSF), 10 mg/ml leupeptin, 1 μM pepstatin, 1 mM N-ethylmleimide (NEM), 2 mM Na3VO4, 20 mM sodium pyrophosphate, and 50 mM NaF). Lysates were centrifuged at 15,000 rpm at 4° C. for 30 min. Then the protein concentration was quantified and samples were boiled for 10 min with Laemmli buffer (15 is 100 mM Tris-HCL, pH 6.8, 4% SDS, 200 mM dithiothreitol, 20% glycerol, 2% SDS, 0.2% bromophenol blue, 10 μg/ml aprotinin, 10 μg/ml leupeptin) at 100° C. In general, 30 μg of proteins were electrophoresed on 10% SDS-polyacrylamide gel and transferred to nitrocellulose membrane. Membranes were blocked in 5% skim milk in TBST (Tris, pH 7.4; 150 mM NaCl; 0.05% Tween 20) for 30 min at room temperature. Blots were probed with primary antibodies overnight at 4 ° C. […] HRP-conjugated secondary IgG anti-Rabbit IgG and anti-mouse IgG (Bio-Rad Laboratories, Inc., Hercules, Calif.) were used at 1:5000 and 1:3000, respectively. HL-60 Cell lysates were used as positive controls (Upstate Biotechnology, Lake Placid, N.Y.).

[13] = tested on: activated caspase 3; details: G93A mice, 120 days, vs untreated
Protocol: as §4

[14] = tested on: plκB; details: G93A mice
Protocol: as §4

[15] = tested on: bcl-2; details: G93A mice, vs vehicle-treated
Protocol: as §4

[16] = tested on: NF-κB p50; details: G93A mice, vs WT and vehicle-treated
Protocol: as §4

[17] = tested on: cytochrome c; details: G93A spinal cord, 120 days, vs PBS-treated
Protocol: as §4

[18] = tested on: bcl-2 mRNA; details: spinal cord tissue cultures, ex vivo administration
Protocol: as §1

[19] = tested on: WT and WT-SOD1 N2a cells; details: MTT
Protocol: (§5) N2a Cell Culture: N2a monolayer cell cultures were grown in 50% DMEM and 50% OPTI-MEM with 5% fetal bovine serum (FBS), 1% antibiotic antimycotic, and 400 microgram/ml of the neomycin analog G418. Differentiation was induced within 3 days in serum-free medium. The SOD1 mutation (G41D) was introduced into a plasmid clone of human genomic SOD1 (pHGSOD-SVneo). Stably transfected lines of N2a cells were selected with the drug G418, after transfection with SOD1 pHGSOD-SVneo plasmids. Differentiated cells were incubated without FBS for 6 days before treatments. […] Cell viability was measured by MTT assay.

[20] = tested on: N2a mutant SOD (G41D) cells; details: 1 mM, 12 hr pretreatment, X/XO 6 hr, MTT, vs untreated cells
Protocol: as §5

[21] = tested on: mice
Protocol: (§6) Intraperitoneal Dosing: Based upon previous studies (Reference 29), a dose response study was performed, treating groups (n=20) of wild type and G93A mice with 200, 600, 1,200, 2,000 and 5,000 mg/kg by daily intraperitoneal injection (100 μl) of sodium butyrate (Acros Organics/Fisher Scientific, Fairlawn, N.J.) dissolved in PBS and made fresh daily. Additional groups of mice were treated in the same manner with 100, 200, 400, 600, and 800 mg/kg of phenylbutyrate (Triple Crown America, Inc. Perkasie, Pa.). Control groups of G93A mice were treated with PBS injection (vehicle). Approximately 260 mice were used for behavioral and survival analyses.
(§7) Motor performance and ability to feed was closely monitored and used as the basis for determining when to euthanize the mice. The criterion for euthanization was the point in time the ALS mice were unable to right themselves after being placed on their back for 30 seconds. Some deaths occurred overnight and were recorded the following morning.

[22] = tested on: G93A transgenic ALS mice; details: for Survival (Days ± SD) / Percentile change (survival extension): G93A mice; for Percentile change (survival extension): vs 0 mg/kg/d
Protocol: We have standardized criteria to ensure homogeneity of the cohorts within the testing groups. Mice were randomized from 24 litters all within 4 days from the same ‘f’ generation. Body weights were taken at 20 days and mice were equally distributed according to weight within each experimental cohort. Mice under 8 g at 20 days were excluded from the experiments.
as §6, §7

[23] = tested on: G93A mice; details: at 120 days, PBS-treated 4,680.6±847.4, WT 11,580.9±221.2
[24] = tested on: bcl-2 promoter; assay: bcl-2 promoter activity assay in transfected N2a cells; type: cell-based
Protocol: Promoter Activity Assay: […] Vincent Bours (University of Liege, Belgium) (Reference 41). The bcl-2 Luc-reporter plasmids containing the fragment from -3934 to -8 from the bcl-2 promoter was also generous gift from Dr. L. Boxer (Stanford University, California). […] All promoter assays were performed in duplicates. Enzyme activities were normalized to the protein concentration of the extracts.

[25] = Body weight; type: in vivo; details: G93A mice, beginning after 100 days

## [O-][n+]1cccc(/C(Cl)=N/OC[C@H](O)CN2CCCCC2)c1 [arimoclomal]
[1]
  survival extension: 22%

## Nc1nc2ccc(OC(F)(F)F)cc2s1 [riluzole]
[2]
  extension of life: 10-15%

## sodium phenylbutyrate [PBA]
[3]; spinal cord tissue cultures from G93A mice
  time of induced NF-κBp50 acetylation: 3 to 6 h
[3]; spinal cord tissue cultures from WT mice
  time of induced NF-κBp50 acetylation: 6 to 24 h
[4]
  cytosolic plκB immunofluorescence: increased
[5]
  nuclear translocation of NF-κB p50 immunofluorescence: increased
[6]
  stride length: markedly improved
[7]
  plκB protein: increased
[8]
  bcl-2 protein: increased
[9]
  histone 3 and histone 4 acetylation (Western blot): markedly increased
[10]
  motor performance (rotarod): significantly improved
[11]
  reactive astrogliosis (GFAP immunostaining): reduced
[11]; 400 mg/kg/d
  gross spinal cord atrophy: ameliorated
[12]
  activated caspase 9 (Western blot): significantly reduces
[13]
  activated caspase 3 (Western blot): significantly reduces
[14]
  phosphorylation of lκB in the ventral horn: increased
[15]
  Bcl-2 expression in spinal cord sections: restored to WT levels
[16]
  expression of NF-κBp50: Marked increased expression
[17]
  release of cytochrome c into the cytosol of neurons: dramatic reduction
[18]
  mRNA upregulation of bcl-2: induced at 3 hours and sustained until 12 hours
[19]
  protection against X/XO-induced cell death: protects
[20]
  improvement of cell viability: 34.7%
[21]; 600 mg/kg/d i.p.
  morbidity and mortality: morbidity and mortality
[21]; 800 mg/kg/d i.p.
  morbidity and mortality: morbidity and mortality
[22]; 200 mg/kg/d i.p.
  Survival (Days ± SD): 136.5 ± 5.5 days
  Percentile change (survival extension): 8.6%
[22]; 400 mg/kg/d i.p.
  Survival (Days ± SD): 153.2 ± 6.4 days
  Percentile change (survival extension): 21.9%
[22]; transgenic SOD1 mice, this study, dose not stated
  survival benefit: 22%
[23]; 400 mg/kg/d i.p. from 21 days
  estimated number of ventral horn neurons, lumbar cord: 10,378.4±304.4
[24]; N2a cells transfected with bcl-2 reporter plasmids
  increase of bcl-2 promotor activity: 90%
[24]; N2a cells transfected with bcl-2 reporter plasmids, after 24 h of incubation
  induction of bcl-2 promotor activity: approximately 2 fold
[24]; N2a cells, transfection assay
  transactivation of wild type κB site bcl-2 promotor: transactivates
[25]
  body weight loss: significantly reduced

## COc1cc(/C=C/C(=O)CC(=O)/C=C/c2ccc(O)c(OC)c2)ccc1O [Curcumin]
[24]; N2a cells, with PBA
  effect on PBA-induced bcl-2 promoter activity: dose-dependently blocked

## CCCC(=O)[O-].[Na+] [NAB, sodium butyrate]
[10]
  motor performance (rotarod): significantly improved
[11]
  reactive astrogliosis (GFAP immunostaining): reduced
[11]; 1.2 g/kg/d
  gross spinal cord atrophy: ameliorated
[21]; 2 g/kg/d i.p.
  time to death (mice became moribund and died): 1 to 9 days
[21]; 4 g/kg/d i.p.
  time to sudden death: 0.5 to 1.0 h
[22]; 200 mg/kg/d i.p.
  Survival (Days ± SD): 129.2 ± 4.5 days
[22]; 600 mg/kg/d i.p.
  Survival (Days ± SD): 141.8 ± 5.9 days
  Percentile change (survival extension): 12.5%
[22]; 1200 mg/kg/d i.p.
  Survival (Days ± SD): 151.3 ± 6.8 days
  Percentile change (survival extension): 20%
[23]; 1.2 g/kg/d i.p. from 21 days
  estimated number of ventral horn neurons, lumbar cord: 9,604.4±346.2
[25]
  body weight loss: significantly reduced
